From patent EP0751957B1, “PEPTIDE FRAGMENTS OF MICROBIAL STRESS PROTEINS AND PHARMACEUTICAL COMPOSITION MADE THEREOF FOR THE TREATMENT AND PREVENTION OF INFLAMMATORY DISEASES” (priority 1994, dated 2004)
“Also recorded” adds a separate entry of the source.

What was measured:
[1] = tested on: Peptide-specific T cell lines; assay: T cell proliferation assay, peptide-specific T cell lines from peptide-immunised rats; assay type: cell-based, Lewis rats; details: for CPM T Cell Line: in vitro peptide 10 µg/ml
Protocol: (§1) T cell proliferation assays: PLNC were cultured in triplicate in 200 µl flat bottom microtitre wells (Costar) at 2 x 10^5 cells per well with or without antigen. In initial experiments PLNC were tested for responsiveness to individual peptides at concentrations of 5 and 20 µg/ml, and Mt, hsp65 and PPD over a range of concentrations. Concanavalin A (2 µg/ml) was used as a positive control for T cell proliferation. Cultures were incubated for 96 h at 37°C in a humidified atmosphere of 5% CO2. Cultures were pulsed for the final 16 h with [^3H] TdR (Amersham, U.K., 1 uCi/well) and TdR uptake measured using a liquid scintillation β counter. Assays using T cell lines were performed as above using 2 x 10^4 line cells per well with irradiated (30 Gy) syngeneic accessory cells (either 3 x 10^5 splenocytes/well or 10^6 thymocytes/well). Results are expressed as mean counts per minute (cpm) of triplicate cultures. In experiments where responses to Ag were low, responses were considered significant if the stimulation index (S.I. = mean cpm with Ag - mean cpm without Ag) was greater than two and Student's t tests gave p < 0.01.
T cell lines: T cell lines with specificity for mycobacterial hsp65 or peptides were generated by bulk stimulation of either hsp65-PLNC or Mt-PLNC. PLNC were cultured at 5 x 10^6/ml in culture medium supplemented with 2% normal rat serum (NRS) in the presence of 10 µg/ml Ag. After three days viable cells were harvested using a ficoll-isopaque gradient and cultured for a further four days in culture medium + 5% FCS and 5% TCGF (Con A-activated rat spleen supernatant). Seven days after initial stimulation lines were restimulated with irradiated spleen accessory cells and 10 µg/ml Ag in culture medium + NRS. Lines were maintained ir. this seven day restimulation cycle. Short term epitope-specific T cell lines were also generated from rats immunised with synthetic peptides. Peptide-PLNC were cultured as above in the presence of 10 µg/ml peptide.
Bulk stimulation generated T cell lines to eight of the nine peptides tested. These eight lines were tested for specificity after four in vitro restimulations (Table II). All responded to the immunising peptide and, to some extent, to hsp65.
(§2) T cell responses by immunisation with hsp65 peptides. Rats were immunised with synthetic peptides containing individual hsp65 epitopes (100 µg peptide/DDA per rat). Ten days later PLNC were isolated and tested for responses to overlapping peptides (20 µg/ml). Peptide-specific T cell lines were generated by bulk in vitro stimulation of PLNC with immunising peptide. Lines were tested for responses to overlapping peptides (10 µg/ml). […] Results are expressed as mean cpm of triplicate cultures. All SEM were less than 20%.

[2] = tested on: PLNC from preimmunised rats; assay: T cell proliferation assay, PLNC of peptide-preimmunised AA rats 42 days after Mt; assay type: cell-based, Lewis rats; details: rats preimmunised with the same peptide; peptide 20µg/ml
Protocol: (§3) Immunisations with synthetic peptides and primed lymph node populations: Rats were immunised with 50 µg of synthetic peptide in PBS/DDA in each hind footpad (i.e. 50 µg/footpad, 100 µg/rat). Ten days later, draining popliteal lymph nodes were removed, disaggregated, washed three times and used as a source of primed lymph node cells (PLNC). In some experiments, PLNC were derived as pooled inguinal and popliteal lymph nodes from AA rats 35-42 days post Mt immunisation.
as §1
PLNC from preimmunised rats were tested for responsiveness to hsp65 epitopes 42 days after Mt administration (Fig. 8). […] Responses to peptide 176-190 containing the AA-associated epitope were found in all PLNC populations (and enhanced after 176-190 preimmunisation) with one exception.

adjuvant arthritis = assay: Adjuvant arthritis (AA) induced with Mt in IFA, clinical arthritis score; assay type: in vivo, Lewis rats
Protocol: (§4) Induction and clinical assessment of experimental arthritis: Arthritis was induced by a single intradermal injection in the base of the tail. AA was induced with 0.5 mg Mt suspended in 100 µl IFA. CP20961 arthritis was induced with 2 mg CP20961 in 100 µl light mineral oil (Sigma). Rats were examined daily for clinical signs of arthritis. Severity of arthritis was assessed by scoring each paw from zero to four based on degree of swelling, erythema and deformity of the joints. Thus the maximum possible arthritis score was 16.
(§5) Modulation of arthritis with hsp65 peptides and epitope-specific T cell lines: Synthetic peptides corresponding to eight T cell epitopes present in mycobacterial hsp65 were tested for protective effects on arthritis development. Rats were immunised with 100 µg of individual peptide seven days prior to arthritis induction. Peptides were immunised in each hind footpad in 10 mg/ml DDA (50 µl/pad). Control rats received only PBS/DDA. Epitope-specific T cell lines were also tested for protective activity by intravenous administration of lines at the time of arthritis induction. T cell lines were restimulated in vitro with irradiated spleen APC and specific peptide. Four days later T cell blasts were harvested by ficoll gradient, washed and applied to a second ficoll gradient to remove any contaminating APC. T cells were washed twice in wash medium and twice in PBS and finally suspended at 2.5x10^7/ml in PBS. Immediately prior to injection of Mt, 200 µl (i.e. 5x10^6) T cells were injected i.v. in the tail vein.
The effects of preimmunisation with synthetic peptides containing individual epitopes on the development of AA were analysed (Fig. 7). The eight peptides which primed for epitope specific T cells were tested. Rats were immunised with 100 µg of peptide 7 days prior to AA-induction with Mt.

[3] = tested on: primed lymph node cells (PLNC); assay: T cell proliferation assay, PLNC from peptide-immunised rats; assay type: cell-based, Lewis rats; details: in vitro peptide 20 µg/ml
Protocol: as §3, §1
To determine whether immunisation of rats with synthetic peptides was effective at priming for T cell reactivity to hsp65 epitopes, in vitro proliferative responses following immunisation with 100 µg of peptide each containing individual T cell epitopes were examined. PLNC isolated ten days after immunisation were tested for response to the immunising peptide, overlapping peptides and to hsp65 (Table II). PLNC responses were observed after immunisation with seven of the nine peptides. Responses were not seen after immunisation with peptides 386-400 and 511-525.
as §2

[4] = tested on: CP20961-induced arthritis; assay: CP20961-induced arthritis, clinical arthritis score; assay type: in vivo, Lewis rats; details: 100 µg peptide in DDA 7 days prior to 2 mg CP20961 in 100 µl mineral oil i.d.
Protocol: as §4
as §5, with “T cells were washed twice in wash medium and twice in PBS and finally suspended at 2.5x10^7/ml in PBS. Immediately prior to injection of Mt, 200 µl (i.e. 5x10^6) T cells were injected i.v. in the tail vein.” left out

T cell = T cell proliferative responses in humans (initial testing); assay type: cell-based; details: some autoimmune disease patients
Excerpt: Thus, already the rat-defined T cell epitopes themselves could be used for therapeutical intervention in some individuals (certain HLA types).

[5] = tested on: T cell lines generated from hsp65-immunised rats; assay: T cell proliferation assay, epitope-specific T cell lines generated from hsp65-immunised rats; assay type: cell-based, Lewis rats; details: Line H.52
Protocol: as §1, with “In experiments where responses to Ag were low, responses were considered significant if the stimulation index (S.I. = mean cpm with Ag - mean cpm without Ag) was greater than two and Student's t tests gave p < 0.01.” left out
T cell lines were generated by restimulation of hsp65-PLNC with individual synthetic peptides. For epitopes where responses had been detected to two overlapping peptides, the line was generated using the peptide that induced strongest proliferation of hsp65-PLNC (e.g. for epitope 216-225, peptide 211-225 was used). […]

hsp65-PLNC = assay: T cell proliferation assay, hsp65-PLNC; assay type: cell-based, Lewis rats; details: PLNC from hsp65-immunised rats; peptides 5 and 20 µg/ml
Protocol: Immunisations and primed lymph node populations: Rats were immunised with either Mt or hsp65. Mt was suspended at 5 mg/ml in IFA or DDA and 100 µl injected in each hind footpad (i.e. 500 µg/footpad, 1 mg/rat). Hsp65 (1 mg/ml in PBS) was mixed 1:1 with DDA and 100 µl injected (i.e. 50 µg/footpad, 100 µg/rat). Ten to 21 days later, draining popliteal lymph nodes were removed, disaggregated, washed three times and used as a source of primed lymph node cells (PLNC). In control experiments splenocytes and lymph nodes from unimmunised rats and PLNC from rats immunised with IFA or DDA/PBS alone were used.
as §1
Hsp65-PLNC were analysed for responsiveness to a panel of peptides covering the entire sequence of hsp65 (Fig. 3a). […] In terms of magnitude of response, three regions of the molecule (residues 176-190, 211-230 and 221-240) appeared to contain the "dominant" T cell epitopes, while regions 86-100. 251-270, 396-410 and 506-525 contained "subdominant" or minor epitopes.

[6] = 100 µg peptide in DDA, hind footpads, 7 days prior to AA induction with Mt

Substance	CPM T Cell Line ([1]; T cell line from 211-225-immunised PLNC) [cpm]	PLNC response to the immunising peptide 42 days after Mt administration [2]	protection against AA development after peptide preimmunisation (adjuvant arthritis; [6])	CPM PLNC ([3]; PLNC 10 days after immunisation with peptide 211-225 (100 µg/DDA)) [cpm]	protection against CP20961-induced arthritis after peptide preimmunisation [4]	CPM T Cell Line ([1]; T cell line from 256-270-immunised PLNC) [cpm]	response of the line generated against M.256-270 (line P.m52) ([1]; irradiated syngeneic spleen APC)	mean maximum arthritis score (adjuvant arthritis; 100 µg peptide in DDA, hind footpads, 7 days prior to AA induction with Mt, 24 rats in five experiments, maximum possible score 16)	protection against AA development after peptide preimmunisation (adjuvant arthritis; 100 µg peptide in DDA, hind footpads, 7 days prior to AA induction with Mt, listed as hsp65 256-270)	rats that developed clinical signs of arthritis (adjuvant arthritis; of the 24 rats preimmunised with peptide, signs milder than in control rats)	permanent joint deformities (adjuvant arthritis; preimmunised rats that developed AA)	T cell proliferative responses in autoimmune disease patients (T cell)	level of proliferation relative to the rat peptide [5]	CPM PLNC ([3]; PLNC 10 days after immunisation with peptide 256-270 (100 µg/DDA)) [cpm]	CPM T Cell Line ([1]; T cell line from 86-100-immunised PLNC) [cpm]	hsp65-PLNC proliferative response to peptide (hsp65-PLNC)	CPM PLNC ([3]; PLNC 10 days after immunisation with peptide 86-100 (100 µg/DDA), mean of triplicates) [cpm]
peptide 211-225: synthetic 15mer, residues 211-225 of mycobacterial hsp65; control peptide in arthritis models	121978	strong responses	did not influence AA development	39765	did not												
peptide 256-270: synthetic 15mer, sequence 256-270 of SEQ ID No.1 (mycobacterial hsp65)		marginal PLNC responses	striking protective effect; also recorded: strong protection; also recorded: clear protective effects		strongly protected	69037	responded	1.7	Protection was observed	twelve	remarkably free of permanent deformities	capable of inducing T cell proliferative responses	five to ten fold higher	16423			
peptide 86-100: synthetic 15mer, sequence 86-100 of SEQ ID No.1 (mycobacterial hsp65) (DGTTTATVLAQALVR; UniProt P9WPE7 86-100, looked up, fragment)			moderate protection; also recorded: moderate effect									capable of inducing T cell proliferative responses			49422	subdominant	57925
